pIC50: −log10 of the molar value.
Key:
[1] = biological target: T1, Phosphatidylinositol 4,5-bisphosphate 3-kinase catalytic subunit beta isoform (Homo sapiens, UniProt P42338); test: Inhibition of N-terminal myristoylated P110beta (unknown origin)-mediated AKT phosphorylation at Ser473 expressed in rat Rat1 cells by ELISA; assay type: cell-based
[2] = biological target: T1, Phosphatidylinositol 4,5-bisphosphate 3-kinase catalytic subunit beta isoform; test: Inhibition of P110beta (unknown origin) using L-a-phosphatidylinositol as substrate by luminescence assay
[3] = biological target: T2, Phosphatidylinositol 4,5-bisphosphate 3-kinase catalytic subunit alpha isoform (Homo sapiens, UniProt P42336); test: Inhibition of P110alpha (unknown origin) using L-a-phosphatidylinositol as substrate by luminescence assay
[4] = biological target: T3, Phosphatidylinositol 4,5-bisphosphate 3-kinase catalytic subunit delta isoform (Homo sapiens, UniProt O00329); test: Inhibition of N-terminal myristoylated P110delta (unknown origin)-mediated AKT phosphorylation at Ser473 expressed in rat Rat1 cells by ELISA; assay type: cell-based
T3 sequence (O00329 whole entry): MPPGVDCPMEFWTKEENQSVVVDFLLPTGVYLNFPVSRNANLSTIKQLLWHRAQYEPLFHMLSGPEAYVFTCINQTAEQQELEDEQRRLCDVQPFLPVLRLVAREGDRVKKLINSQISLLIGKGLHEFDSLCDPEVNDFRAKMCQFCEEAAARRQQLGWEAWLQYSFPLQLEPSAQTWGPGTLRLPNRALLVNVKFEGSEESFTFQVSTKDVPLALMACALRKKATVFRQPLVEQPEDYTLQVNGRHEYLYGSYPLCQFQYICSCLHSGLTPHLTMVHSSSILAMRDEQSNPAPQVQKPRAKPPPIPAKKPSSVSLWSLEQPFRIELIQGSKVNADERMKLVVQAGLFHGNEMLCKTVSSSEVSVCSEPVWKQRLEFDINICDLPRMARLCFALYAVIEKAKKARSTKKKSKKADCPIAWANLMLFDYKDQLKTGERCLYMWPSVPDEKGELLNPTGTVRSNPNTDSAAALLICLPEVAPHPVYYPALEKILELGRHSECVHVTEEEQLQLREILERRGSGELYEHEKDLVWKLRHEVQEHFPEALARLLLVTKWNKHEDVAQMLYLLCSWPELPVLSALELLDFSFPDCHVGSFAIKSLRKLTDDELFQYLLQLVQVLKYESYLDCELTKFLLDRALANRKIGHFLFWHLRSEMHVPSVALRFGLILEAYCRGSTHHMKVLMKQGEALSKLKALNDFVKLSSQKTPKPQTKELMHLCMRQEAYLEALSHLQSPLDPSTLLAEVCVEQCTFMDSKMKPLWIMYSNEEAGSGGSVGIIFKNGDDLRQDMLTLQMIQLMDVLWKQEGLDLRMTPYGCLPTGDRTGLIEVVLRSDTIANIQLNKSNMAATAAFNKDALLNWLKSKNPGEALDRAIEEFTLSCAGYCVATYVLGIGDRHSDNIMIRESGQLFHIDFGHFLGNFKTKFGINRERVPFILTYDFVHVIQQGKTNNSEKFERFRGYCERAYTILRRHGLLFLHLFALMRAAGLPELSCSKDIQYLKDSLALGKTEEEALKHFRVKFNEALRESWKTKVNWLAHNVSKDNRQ

[5] = biological target: T2, Phosphatidylinositol 4,5-bisphosphate 3-kinase catalytic subunit alpha isoform; test: Inhibition of N-terminal myristoylated P110alpha (unknown origin)-mediated AKT phosphorylation at Ser473 expressed in rat Rat1 cells by ELISA; assay type: cell-based
[6] = biological target: T3, Phosphatidylinositol 4,5-bisphosphate 3-kinase catalytic subunit delta isoform; test: Inhibition of P110delta (unknown origin) using PIP2:PS as substrate by TR-FRET assay
[7] = biological target: Phosphatidylinositol 4,5-bisphosphate 3-kinase catalytic subunit gamma isoform (Homo sapiens, UniProt P48736); test: Inhibition of P110gamma (unknown origin) using PIP2:PS as substrate by TR-FRET assay
Cytochrome P450 3A4 = Cytochrome P450 3A4 (Homo sapiens, UniProt P08684); test: Inhibition of CYP3A4 (unknown origin); assay type: ADME
[8] = Clearance in rat liver microsomes; assay type: ADME, Microsome; conditions: read-out: CLH
[9] = biological target: Serine/threonine-protein kinase mTOR (Homo sapiens, UniProt P42345); test: Inhibition of mTOR (unknown origin)
[10] = Clearance in Sprague-Dawley rat at 1 mg/kg, iv; assay type: ADME, organism-based; set-up: dose 1 mg/kg, route intravenous; conditions: in vivo
[11] = biological target: Serine/threonine-protein kinase ATR (Homo sapiens, UniProt Q13535); test: Inhibition of ATR (unknown origin)
[12] = Half life in Sprague-Dawley rat at 1 mg/kg, iv; assay type: ADME, organism-based; set-up: dose 1 mg/kg, route intravenous; conditions: in vivo
[13] = biological target: Phosphatidylinositol 3-kinase catalytic subunit type 3 (Homo sapiens, UniProt Q8NEB9); test: Inhibition of VPS34 (unknown origin)
[14] = Clearance in rat at 3.4 mg/kg, iv and 15 mg/kg, po; assay type: ADME, organism-based; conditions: in vivo
[15] = Cmax in rat at 15 mg/kg, po; assay type: ADME, organism-based; set-up: dose 15 mg/kg, route oral; conditions: in vivo
[16] = Clearance in dog at 0.1 mg/kg, iv and 0.6 mg/kg, po; assay type: ADME, organism-based, Canis lupus familiaris; conditions: in vivo
[17] = Cmax in dog at 0.6 mg/kg, po; assay type: ADME, organism-based, Canis lupus familiaris; set-up: dose 0.6 mg/kg, route oral; conditions: in vivo
[18] = Volume of distribution at steady state in Sprague-Dawley rat at 1 mg/kg, iv; assay type: ADME, organism-based; set-up: dose 1 mg/kg, route intravenous; conditions: in vivo, read-out: Vdss
[19] = biological target: Serine-protein kinase ATM (Homo sapiens, UniProt Q13315); test: Inhibition of ATM (unknown origin) phosphorylation at Ser1981 by cell-based assay
[20] = Clearance in mouse at 1 mg/kg, iv and 3 mg/kg, po; assay type: ADME, organism-based; conditions: in vivo
[21] = Oral bioavailability in dog at 0.6 mg/kg; assay type: ADME, organism-based, Canis lupus familiaris; conditions: in vivo
[22] = Plasma protein binding in Sprague-Dawley rat at 1 mg/kg, iv; assay type: ADME, organism-based; set-up: dose 1 mg/kg, route intravenous; conditions: read-out: PPB (converted)
[23] = Oral bioavailability in mouse at 3 mg/kg; assay type: ADME, organism-based; conditions: in vivo
[24] = biological target: DNA-dependent protein kinase catalytic subunit (Homo sapiens, UniProt P78527); test: Inhibition of DNA-PK (unknown origin)
[25] = Cmax in mouse at 3 mg/kg, po; assay type: ADME, organism-based; set-up: dose 3 mg/kg, route oral; conditions: in vivo
[26] = Clearance in rat liver microsomes in presence of cofactor for glucuronyl transferases; assay type: ADME, Microsome; conditions: read-out: CLH

T2 sequence (P42336 whole entry, canonical isoform): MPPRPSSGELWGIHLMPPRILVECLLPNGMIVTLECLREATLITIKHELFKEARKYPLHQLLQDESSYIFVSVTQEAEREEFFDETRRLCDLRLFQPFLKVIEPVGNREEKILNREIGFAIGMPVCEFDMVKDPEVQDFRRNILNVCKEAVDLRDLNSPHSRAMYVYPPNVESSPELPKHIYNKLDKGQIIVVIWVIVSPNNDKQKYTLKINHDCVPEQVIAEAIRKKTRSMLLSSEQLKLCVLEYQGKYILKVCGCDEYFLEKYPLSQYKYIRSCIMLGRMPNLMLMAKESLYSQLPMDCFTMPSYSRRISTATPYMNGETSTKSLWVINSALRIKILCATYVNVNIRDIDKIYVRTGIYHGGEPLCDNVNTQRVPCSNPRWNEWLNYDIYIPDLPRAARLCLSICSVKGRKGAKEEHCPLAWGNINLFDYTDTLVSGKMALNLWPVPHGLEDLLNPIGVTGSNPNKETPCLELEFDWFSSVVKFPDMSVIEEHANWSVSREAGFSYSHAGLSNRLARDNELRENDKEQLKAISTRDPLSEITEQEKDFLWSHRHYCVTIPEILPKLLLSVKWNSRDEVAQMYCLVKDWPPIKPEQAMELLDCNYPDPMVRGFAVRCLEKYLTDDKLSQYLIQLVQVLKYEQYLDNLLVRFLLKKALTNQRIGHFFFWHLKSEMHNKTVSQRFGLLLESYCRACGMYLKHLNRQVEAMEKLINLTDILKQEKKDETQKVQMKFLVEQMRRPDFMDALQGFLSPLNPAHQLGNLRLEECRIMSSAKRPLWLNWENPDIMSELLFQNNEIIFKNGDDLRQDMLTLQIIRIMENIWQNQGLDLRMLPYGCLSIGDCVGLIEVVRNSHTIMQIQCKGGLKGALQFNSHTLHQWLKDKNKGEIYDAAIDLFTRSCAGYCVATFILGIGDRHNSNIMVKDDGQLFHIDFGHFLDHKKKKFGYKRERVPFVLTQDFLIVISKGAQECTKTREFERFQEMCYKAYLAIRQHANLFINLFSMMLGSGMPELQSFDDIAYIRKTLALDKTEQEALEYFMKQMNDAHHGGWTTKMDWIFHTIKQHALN
Phosphatidylinositol 4,5-bisphosphate 3-kinase catalytic subunit gamma isoform, sequence (P48736 whole entry, canonical isoform): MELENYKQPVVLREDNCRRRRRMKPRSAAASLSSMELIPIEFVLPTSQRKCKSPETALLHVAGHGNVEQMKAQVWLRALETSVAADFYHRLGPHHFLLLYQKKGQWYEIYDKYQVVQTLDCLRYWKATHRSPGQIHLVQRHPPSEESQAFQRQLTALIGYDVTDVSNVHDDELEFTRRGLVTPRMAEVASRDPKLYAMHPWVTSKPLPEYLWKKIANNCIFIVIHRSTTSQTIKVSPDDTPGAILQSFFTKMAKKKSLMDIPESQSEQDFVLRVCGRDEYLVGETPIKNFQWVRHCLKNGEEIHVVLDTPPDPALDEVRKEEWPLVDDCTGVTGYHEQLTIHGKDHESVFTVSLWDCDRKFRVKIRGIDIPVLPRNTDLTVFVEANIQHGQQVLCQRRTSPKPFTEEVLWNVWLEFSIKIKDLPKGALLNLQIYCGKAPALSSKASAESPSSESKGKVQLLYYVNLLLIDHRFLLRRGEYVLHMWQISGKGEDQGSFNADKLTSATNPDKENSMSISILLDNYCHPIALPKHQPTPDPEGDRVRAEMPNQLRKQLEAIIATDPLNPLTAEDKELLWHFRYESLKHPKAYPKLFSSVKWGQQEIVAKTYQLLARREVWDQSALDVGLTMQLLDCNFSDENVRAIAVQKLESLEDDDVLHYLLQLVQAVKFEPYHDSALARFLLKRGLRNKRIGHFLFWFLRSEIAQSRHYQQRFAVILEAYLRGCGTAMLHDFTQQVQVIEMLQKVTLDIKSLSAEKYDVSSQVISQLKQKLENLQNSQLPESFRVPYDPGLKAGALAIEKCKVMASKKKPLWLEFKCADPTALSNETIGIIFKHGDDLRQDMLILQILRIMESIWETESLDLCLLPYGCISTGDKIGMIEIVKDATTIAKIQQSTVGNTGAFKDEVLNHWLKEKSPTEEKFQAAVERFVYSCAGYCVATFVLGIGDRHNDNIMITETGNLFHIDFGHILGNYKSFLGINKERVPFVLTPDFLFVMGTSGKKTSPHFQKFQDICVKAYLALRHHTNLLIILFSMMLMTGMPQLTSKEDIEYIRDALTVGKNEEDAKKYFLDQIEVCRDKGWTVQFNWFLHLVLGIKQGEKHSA
Cytochrome P450 3A4, sequence (P08684 whole entry): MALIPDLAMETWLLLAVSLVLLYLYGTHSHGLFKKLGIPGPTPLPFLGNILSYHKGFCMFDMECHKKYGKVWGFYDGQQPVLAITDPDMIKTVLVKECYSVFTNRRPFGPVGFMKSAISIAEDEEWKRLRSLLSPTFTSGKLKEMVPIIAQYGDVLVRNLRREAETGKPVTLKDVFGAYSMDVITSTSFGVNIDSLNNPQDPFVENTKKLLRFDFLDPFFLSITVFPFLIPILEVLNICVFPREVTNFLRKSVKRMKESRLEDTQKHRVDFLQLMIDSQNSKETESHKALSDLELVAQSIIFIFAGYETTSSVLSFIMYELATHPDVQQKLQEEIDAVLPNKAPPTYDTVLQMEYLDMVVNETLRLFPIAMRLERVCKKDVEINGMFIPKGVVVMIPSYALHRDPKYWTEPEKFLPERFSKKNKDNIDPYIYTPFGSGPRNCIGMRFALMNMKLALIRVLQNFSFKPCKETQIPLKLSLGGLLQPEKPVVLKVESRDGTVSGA
T1 sequence (P42338 whole entry, canonical isoform): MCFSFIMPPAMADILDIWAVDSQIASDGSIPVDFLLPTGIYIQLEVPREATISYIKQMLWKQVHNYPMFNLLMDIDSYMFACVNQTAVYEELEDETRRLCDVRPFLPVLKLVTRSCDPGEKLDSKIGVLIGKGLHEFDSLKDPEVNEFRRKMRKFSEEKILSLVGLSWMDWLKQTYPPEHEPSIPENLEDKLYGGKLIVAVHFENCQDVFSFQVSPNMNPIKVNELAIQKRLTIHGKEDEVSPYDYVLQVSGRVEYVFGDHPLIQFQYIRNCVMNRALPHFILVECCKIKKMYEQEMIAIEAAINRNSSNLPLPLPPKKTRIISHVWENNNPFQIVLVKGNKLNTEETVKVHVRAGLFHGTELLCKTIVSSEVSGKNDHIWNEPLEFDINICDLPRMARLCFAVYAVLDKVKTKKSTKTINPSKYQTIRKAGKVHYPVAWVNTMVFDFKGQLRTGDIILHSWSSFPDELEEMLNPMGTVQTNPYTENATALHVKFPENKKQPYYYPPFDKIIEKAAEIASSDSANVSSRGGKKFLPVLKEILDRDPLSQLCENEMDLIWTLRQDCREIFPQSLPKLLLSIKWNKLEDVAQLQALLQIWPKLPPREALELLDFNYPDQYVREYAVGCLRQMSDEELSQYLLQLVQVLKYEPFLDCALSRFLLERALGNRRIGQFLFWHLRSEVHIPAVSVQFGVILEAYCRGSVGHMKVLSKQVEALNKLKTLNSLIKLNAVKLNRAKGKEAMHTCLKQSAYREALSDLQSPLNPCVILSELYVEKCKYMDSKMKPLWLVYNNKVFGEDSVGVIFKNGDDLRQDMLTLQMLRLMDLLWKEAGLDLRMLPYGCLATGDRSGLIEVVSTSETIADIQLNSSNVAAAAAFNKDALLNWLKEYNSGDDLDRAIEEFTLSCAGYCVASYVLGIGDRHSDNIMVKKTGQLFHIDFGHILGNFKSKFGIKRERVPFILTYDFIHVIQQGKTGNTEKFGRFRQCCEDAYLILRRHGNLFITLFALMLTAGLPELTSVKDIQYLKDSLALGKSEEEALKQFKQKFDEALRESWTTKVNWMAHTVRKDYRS
Phosphatidylinositol 3-kinase catalytic subunit type 3, sequence (Q8NEB9 whole entry): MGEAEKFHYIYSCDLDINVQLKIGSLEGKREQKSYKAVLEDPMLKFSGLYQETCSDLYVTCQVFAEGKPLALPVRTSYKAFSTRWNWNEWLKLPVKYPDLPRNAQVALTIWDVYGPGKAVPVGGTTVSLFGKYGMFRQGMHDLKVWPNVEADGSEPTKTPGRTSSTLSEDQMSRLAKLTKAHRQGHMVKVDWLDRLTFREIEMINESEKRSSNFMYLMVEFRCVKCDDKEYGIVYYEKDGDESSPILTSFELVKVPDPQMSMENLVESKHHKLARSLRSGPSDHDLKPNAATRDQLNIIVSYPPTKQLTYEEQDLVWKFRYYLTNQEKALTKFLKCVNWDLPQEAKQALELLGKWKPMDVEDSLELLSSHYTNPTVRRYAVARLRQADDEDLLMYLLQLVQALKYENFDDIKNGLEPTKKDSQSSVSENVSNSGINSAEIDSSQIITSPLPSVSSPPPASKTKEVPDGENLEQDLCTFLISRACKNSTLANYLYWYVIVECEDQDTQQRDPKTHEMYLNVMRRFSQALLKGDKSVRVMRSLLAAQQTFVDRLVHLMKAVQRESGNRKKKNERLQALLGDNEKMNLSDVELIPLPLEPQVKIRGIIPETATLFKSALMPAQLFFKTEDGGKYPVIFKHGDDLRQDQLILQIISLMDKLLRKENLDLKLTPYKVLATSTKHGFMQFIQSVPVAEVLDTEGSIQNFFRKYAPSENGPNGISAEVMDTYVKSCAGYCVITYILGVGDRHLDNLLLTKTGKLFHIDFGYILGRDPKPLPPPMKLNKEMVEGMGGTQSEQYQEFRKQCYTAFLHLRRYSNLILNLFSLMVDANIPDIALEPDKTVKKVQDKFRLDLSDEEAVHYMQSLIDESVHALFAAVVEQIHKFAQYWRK

| pIC50 [1] | pIC50 [2] | pIC50 [3] | pIC50 [4] | pIC50 [5] | pIC50 [6] | pIC50 [7] | pIC50 (Cytochrome P450 3A4) | microsomal CLint [8] [µL/min/mg] | microsomal CLint [26] [µL/min/mg] | Compound | further results |
| --- | --- | --- | --- | --- | --- | --- | --- | --- | --- | --- | --- |
| < 5.00 | < 5.04 | 6.49 | < 5.00 | 5.34 |  |  |  |  |  | Cc1nc(NC(=O)N2CCC[C@H]2C(N)=O)sc1-c1cc(C(C)C)ncn1 |  |
| < 5.00 |  |  | < 5.00 | 6.19 | 5.70 | 5.96 | < 5.00 | 41 |  | Cc1nc(NC(=O)N2CCC[C@H]2C(N)=O)sc1-c1ccnc(C2(C#N)CC2)c1 |  |
| 5.23 | 5.40 | 7.80 | 5.89 | 7.00 | 6.02 | 5.85 | < 5.00 | 36 |  | Cc1nc(NC(=O)N2CCC[C@H]2C(N)=O)sc1-c1ccnc(C(C)C)n1 |  |
| 5.14 | 5.74 | 7.70 | < 5.00 | 6.36 | 6.16 | 6.21 | < 5.00 | 53 |  | Cc1nc(NC(=O)N2CCC[C@H]2C(N)=O)sc1-c1ccnc(C2CCC2)n1 |  |
| 5.68 |  |  | 6.21 | 6.89 |  |  |  |  |  | Cc1nc(NC(=O)N2CCC[C@H]2C(N)=O)sc1-c1ccc(-n2cccn2)cc1 |  |
|  |  |  |  |  |  |  |  |  |  | Cc1nc(NC(=O)N2CCC[C@H]2C(N)=O)sc1-c1ccnc(C(C)(C)C(F)(F)F)c1 [ALPELISIB] | pIC50 [9]: < 5.04; clearance [10]: 10 mL/min/kg; pIC50 [11]: < 5.04; half-life [12]: 174 min; pIC50 [13]: < 5.04; clearance [14]: 10 mL/min/kg; Cmax [15]: 190 nM; clearance [16]: 8 mL/min/kg; Cmax [17]: 1070 nM; Vd [18]: 1.9 L/kg; pIC50 [19]: < 5.00; clearance [20]: 8 mL/min/kg; bioavailability [21]: 140%; fraction unbound [22]: 0.057; bioavailability [23]: 106%; pIC50 [24]: < 5.04; Cmax [25]: 520 nM |
| 5.02 | 5.51 |  | 5.52 |  | 6.09 | 6.16 | < 5.00 | 47 |  | Cc1nc(NC(=O)N2CCC[C@H]2C(N)=O)sc1-c1ccnc(C2(C)CC2)n1 | clearance [10]: 8 mL/min/kg; half-life [12]: 102 min; Vd [18]: 0.9 L/kg; fraction unbound [22]: 0.029 |
| < 5.00 | < 5.04 | 5.57 | 5.24 | < 5.00 | 5.38 | 5.34 |  |  | 104 | CNC(=O)[C@@H]1CCCN1C(=O)Nc1nc(C)c(-c2ccnc(C(C)(C)C)c2)s1 |  |
| < 5.00 |  |  | 5.31 | 6.47 | 6.37 | 5.85 |  | 17 |  | CC(C)(c1cc(-c2sc(NC(=O)N3CCC[C@H]3C(N)=O)nc2Cl)ccn1)C(F)(F)F |  |
| 5.19 | 5.92 | 7.72 | 5.80 | 6.64 | 6.54 | 6.49 |  | 44 |  | Cc1nc(NC(=O)N2CC[C@H]2C(N)=O)sc1-c1ccnc(C(C)(C)C)n1 |  |
| 5.36 |  |  | 5.60 | 6.77 | 6.47 | 6.39 |  | 96 |  | CCN(CC)c1nccc(-c2sc(NC(=O)N3CCC[C@H]3C(N)=O)nc2C)n1 |  |
|  |  |  |  |  |  |  | < 5.00 |  | 62 | Cc1nc(NC(=O)N2CCC[C@H]2C(N)=O)sc1-c1ccnc(C(C)(C)C)n1 | clearance [10]: 21 mL/min/kg; half-life [12]: 72 min; Vd [18]: 1.2 L/kg; fraction unbound [22]: 0.06 |
| < 5.00 | 5.31 | 6.21 | 6.11 | 5.60 | 6.23 | 6.03 |  |  | 186 | Cc1nc(NC(=O)N2CCCC2)sc1-c1ccnc(C(C)(C)C)c1 |  |
| 5.62 |  | 8.02 | 5.54 | 6.85 | 5.96 | 6.08 | < 5.00 | 27 |  | CC(C)(c1cc(-c2cnc(NC(=O)N3CCC[C@H]3C(N)=O)s2)ccn1)C(F)(F)F |  |

| Compound | pIC50 [1] | pIC50 [2] | pIC50 [3] | pIC50 [4] | pIC50 [5] | pIC50 [6] | pIC50 [7] | pIC50 (Cytochrome P450 3A4) | microsomal CLint [8] [µL/min/mg] | microsomal CLint [26] [µL/min/mg] | further results |
| --- | --- | --- | --- | --- | --- | --- | --- | --- | --- | --- | --- |
| Cc1nc(NC(=O)N2CCC[C@@H]2C(N)=O)sc1-c1ccnc(C(C)(C)C)c1 |  | 5.09 |  |  |  | 5.48 | < 5.00 |  |  | 36 |  |
| Cc1nc(NC(=O)N2CCC[C@H]2C(N)=O)sc1-c1ccnc(C(C)(C)C)c1 | 5.10 |  |  | 6.14 |  | 6.48 | 6.37 | < 5.00 |  | 77 | clearance [10]: 39 mL/min/kg; half-life [12]: 204 min; Vd [18]: 1.4 L/kg |

Reference: ChEMBL document CHEMBL2396607 (Bioorg Med Chem Lett, 2013)
